In test [1] the target is T1, tryptophan 2,3-dioxygenase-2 (TDO2) (Homo sapiens, UniProt P48775).
T1 construct: full-length human TDO2, overexpressed in GL261 cells
The experiment in a line: cellular kynurenine colorimetric assay in GL261-hTDO2 cells, […] h. In kind it is cell-based.

Test [2] addresses T2, indoleamine 2,3-dioxygenase-1 (IDO1) (Homo sapiens, UniProt P14902).
T2 construct: human IDO1 in expression vector F279-V5/hIDO1, stably transfected in LLC cells
The experiment in a line: cellular kynurenine colorimetric assay in LLC-hIDO1 cells, […] h. In kind it is cell-based.

T1 sequence (P48775 whole entry): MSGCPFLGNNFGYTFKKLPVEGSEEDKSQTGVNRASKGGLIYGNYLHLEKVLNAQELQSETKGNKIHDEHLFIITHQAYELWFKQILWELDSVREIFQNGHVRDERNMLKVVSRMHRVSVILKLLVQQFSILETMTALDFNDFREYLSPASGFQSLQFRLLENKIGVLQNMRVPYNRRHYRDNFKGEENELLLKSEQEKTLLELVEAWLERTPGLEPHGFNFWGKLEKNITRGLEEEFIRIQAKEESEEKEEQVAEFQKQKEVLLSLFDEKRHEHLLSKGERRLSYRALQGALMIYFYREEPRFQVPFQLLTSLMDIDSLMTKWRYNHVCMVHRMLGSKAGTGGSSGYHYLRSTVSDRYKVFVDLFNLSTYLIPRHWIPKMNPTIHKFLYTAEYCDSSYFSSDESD
T2 sequence (P14902 whole entry): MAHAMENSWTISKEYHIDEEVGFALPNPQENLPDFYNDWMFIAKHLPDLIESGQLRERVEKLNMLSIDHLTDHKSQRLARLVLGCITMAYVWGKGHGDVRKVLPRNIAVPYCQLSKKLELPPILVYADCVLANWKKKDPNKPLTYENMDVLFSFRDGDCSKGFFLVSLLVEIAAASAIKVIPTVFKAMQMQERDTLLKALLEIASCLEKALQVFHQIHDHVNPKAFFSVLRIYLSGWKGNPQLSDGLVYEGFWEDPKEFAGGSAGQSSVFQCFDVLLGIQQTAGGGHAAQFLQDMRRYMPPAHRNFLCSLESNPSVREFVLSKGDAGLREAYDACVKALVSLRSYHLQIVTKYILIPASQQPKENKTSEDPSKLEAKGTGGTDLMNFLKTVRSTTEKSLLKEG

Consider AT-0174, for which the figures for the concentration for half-maximal inhibition (IC50) in test [1] and in test [2] were 250 nM and 170 nM, respectively.
